Reference: paper PMC9774128, “New Insights into the Mechanism of Antibacterial Action of Synthetic Peptide Mo-CBP3-PepI against Klebsiella pneumoniae” (Antibiotics, 2022)

Legend:
[1] = test system: K. pneumoniae (ATCC 10031); experiment: Antibacterial assay (MIC50); type: cell-based, Klebsiella pneumoniae; conditions: against K. pneumoniae; compared with 31.25 µg mL^−1 of Oliveira et al.
From the text: The human-pathogenic Gram-negative bacteria K. pneumoniae (ATCC 10031) strain was obtained from the Laboratory of Plant Toxins (LABTOX) of the Federal University of Ceará (UFC).

K. pneumoniae cells [2] = experiment: Cell viability by MTT assay, planktonic cells; type: cell-based, Klebsiella pneumoniae; conditions: peptide at MIC50 31.25 μg mL^−1 (Table 1; method says 1 mg mL^−1), MTT 3 h, 37 °C, absorbance 495 nm
Description: The cell viability assay was performed as described by Lima et al., with some adjustments. After the antibacterial assay was completed as described by Oliveira et al., the wells containing the treated cells with Mo-CBP3-PepI at 1 mg mL^−1 and control cells (50 µL) were incubated for 3 h in the dark at 37 °C with 50 µL of 3-(4,5-dimethylthiazol-2-yl)-2,5-diphenyltetrazolium bromide (2 mg mL^−1, MTT). After incubation, 100 µL of 100% DMSO was added to the wells, and the plate was slowly shaken to dissolve the formazan crystals. The absorbance was measured using a microplate reader (Epoch, BioTek) with a wavelength of 495 nm. The controls used for this assay were 5% of dimethyl sulfoxide (DMSO) prepared in 0.15 M NaCl (saline) solution and ciprofloxacin (1000 µg mL^−1) prepared in 5% ethanol in sterile saline solution.

K. pneumoniae cells [3] = experiment: ROS overproduction (DCFH-DA fluorescence microscopy); type: cell-based, Klebsiella pneumoniae; conditions: peptide 31.25 µg mL^−1, 24 h, 1 mM DCFH-DA 30 min
Description: This assay was conducted in the same way as above but with a few differences. The preparation of cell suspension and the antimicrobial assay was performed in the same way described above. After the three rounds of centrifugation and washes, the cells were incubated with 1 mM 2,7-dichlorofluorescein diacetate (DCFH-DA) for 30 min, in the dark, at 37 °C. After the washes, the cells were also observed under a fluorescence microscope (Olympus System BX60; excitation wavelength, 488 nm; emission wavelength, 525 nm).

[4] = test system: K. pneumoniae (ATCC 10031); parameters: method as in PMID 30389515; conditions: against K. pneumoniae; cited from earlier work
[5] = parameters: method as in PMID 30389515; conditions: design feature; cited from earlier work
From the text: Synthetic antimicrobial peptides emerged as a solution to solve the problems presented by natural antimicrobial peptides. […] To answer the first question, it is necessary to revert to the design process of Mo-CBP3-PepI.

C. albicans cells = conditions: cited from earlier work
From the text: To answer the second question, it is necessary to understand an essential characteristic of antimicrobial peptides, self-association. Self-association is the ability of antimicrobial peptides to interact during the insertion into the membrane, allowing the formation of a huge pore. […] In this model, a peptide interacts with lipids in the membrane, as described above, to perform the insertion into the membrane. Then, the peptide molecules interact between them to form a huge por ...

Q: For CPAIQRCC [Mo-CBP3-PepI], which “MIC50, experiments repeated here” value [1] is on record?
A: same results

Q: And the “Cell Viability (%)” value (K. pneumoniae cells [2])?
A: 47.54 ± 0.008%

Q: And the ROS overproduction (K. pneumoniae cells [3])?
A: slight accumulation of ROS

Q: And the MIC50 [4]?
A: 31.25 µg/mL

Q: And the hydrophobic ratio [5]?
A: 62%

Q: And the net charge [5]?
A: +1

Q: And the pore size (C. albicans cells)?
A: 10 kDa
